In patent US20220399129A1, “SYSTEMS AND METHODS FOR TERRAFORMING” (Flagship Pioneering Innovations VI, LLC, priority 2021, published 2022):

System: primary human bronchial epithelial cells (HBECs)
Test: ALI differentiation of HBECs with IL-13, immunofluorescence/histology readout
Type: cell-based
Details: IL-13 treatment during ALI differentiation, day 14, 1 ng/mL
Protocol: FIG. 14A illustrates an experimental scheme of culturing the undifferentiated basal cells known as primary human bronchial epithelial cells (HBECs) at the air-liquid interface in the presence or absence of IL-13 and the perturbagens. […] Pseudostratified airway epithelium was formed by day 14 of ALI differentiation in the presence of 1 ng/mL of […]. Total mucus (AB/PAS), goblet cells (Muc5ac^+), and ciliated cells (acetyl α-tubulin^+) were visualized via immunofluorescence or histology. For histology analysis, the differentiated HBECs on day 14 of ALI were stained with AB/PAS, Muc5ac, and acetyl α-tubulin. […] Immunofluorescence allows for a top down view of the most apical layer of cells, while histology presents a cross-section of the pseudostratified epithelium and is amenable for image quantification.
Using scRNA-seq data, Compound B1 was predicted to inhibit goblet cells and promote club cells within the top 1.2% of compounds of the intervention library. […] Goblet and club cells were assessed by Muc5ac and Scgblal primers, respectively. […] Goblet and ciliated cells were assessed by Muc5ac and Foxj1 primers, respectively. […]
Pseudostratified airway epithelium was formed by day 14 of ALI differentiation. […] In addition, qPCR of ciliated (Foxj1) and goblet (Muc5ac) marker expression was used as a sensitive and quantitative readout of epithelial cell type distribution. […]

IL-13: inflammatory signaling cytokine (R&D) used to induce goblet cell hyperplasia
ciliated cells (acetyl α-tubulin+): reduces ciliated cells | goblet cells (Muc5ac+), total mucus (AB/PAS): induces goblet cell hyperplasia
